Measurements reported in patent US20240261356A1, “COMPOSITION CONTAINING ACANTHOPANAX EXTRACT AND GARCINIA CAMBOGIA EXTRACT OR COMPOUND ISOLATED THEREFROM AS ACTIVE INGREDIENT FOR PREVENTION OR TREATMENT OF LIVER DISEASE” (KOREA RESEARCH INSTITUTE OF BIOSCIENCE AND BIOTECHNOLOGY, priority 2021, published 2024).

How the values were obtained:
HepG2 cells [1] = assay: Fatty acid-induced intracellular fat accumulation (BODIPY fluorescence) in non-alcoholic fatty liver cell model; type: cell-based, human
Experimental: The human liver-derived HepG2 cell line was purchased from American Type Culture Collection (ATCC, VA, USA). HepG2 cells were cultured at 37° C. in an incubator supplied with 5% carbon dioxide. For the cell culture, MEM (Gibco Cat No. 11095-098) medium containing 10% fetal bovine serum (FBS) and 1% antibiotics (Penicillin-streptomycin, Gibco) was used. HepG2 cells were seeded in a 96-well plate at 1×10^4 cells/well, and, after 24 hours, treated with 150 μM oleic acid (Sodium oleate, Sigma, USA) for 24 hours to increase intracellular fat accumulation. The drug treated group was treated 1 hour before being treated with oleic acid. Upon completion of the experiment, the cells were fixed with 4% formaldehyde for 10 minutes and washed twice with PBS buffer. A solution containing […] (Invitrogen Corporation, NY, USA) was added and cultured at room temperature for 30 minutes. At this time, the final concentration of the fluorescent dye BODIPY was 2 μg/ml. After completion of the reaction, the plate was washed three times with PBS buffer, and, when only the minimum amount of PBS remained, the fluorescence was quantified by using a SpectraMax M4 microplate reader (Molecular Devices, USA). At this time, the excitation wavelength was 485 nm, and the emission was 525 nm. The experiment was performed by blocking light with aluminum foil to allow in as little light as possible.

HepG2 cells [2] = assay: Cell viability (CCK-8) of fatty acid-induced non-alcoholic fatty liver cell model; type: cell-based, human; conditions: Table 6, Garcinia extract 0 + Chiisanogenin 6 μg/ml
Experimental: The human liver-derived HepG2 cell line was purchased from American Type Culture Collection (ATCC, VA, USA). HepG2 cells were cultured at 37° C. in an incubator supplied with 5% carbon dioxide. For the cell culture, MEM (Gibco Cat No. 11095-098) medium containing 10% fetal bovine serum (FBS) and 1% antibiotics (Penicillin-streptomycin, Gibco) was used. HepG2 cells were seeded in a 96-well plate at 1×10^4 cells/well, and, after 24 hours, treated with 150 μM oleic acid (Sodium oleate, Sigma, USA) for 24 hours to increase intracellular fat accumulation. The drug treated group was treated 1 hour before being treated with oleic acid. […] After completion of the reaction, the plate was washed three times with PBS buffer, and, when only the minimum amount of PBS remained, the fluorescence was quantified by using a SpectraMax M4 microplate reader (Molecular Devices, USA). […]
In the experimental conditions of the present invention, cell viability was determined by mixing 90 μl of medium with 10 μl of CCK-8 solution, adding 100 μl per well and reacting the mixture for at least 30 minutes to 1 hour, followed by measurement of the absorbance at 450 nm, as described in the CCK-8 (Dojindo) kit. The cell viability was calculated according to Equation 1 below, taking the negative control as 100%, and the results are shown in Tables 8 and 9 below.

[3] = system: non-alcoholic steatohepatitis (NASH) animal models; assay: AST in serum of non-alcoholic steatohepatitis (NASH) animal model; type: in vivo, C57bl/6J mice; conditions: NASH mice, 8 weeks, Chiisanogenin 50 mg/kg
Experimental: (§1) 8-week-old male C57bl/6J mice were fed a NASH-inducing diet (#A06071302 diet) for 8 weeks, and, from the 9th week, single samples (i.e., Garcinia extract, Acanthopanax extract or Chiisanogenin) and a composite sample thereof were administered for 8 weeks, together with NASH dietary feed (#A06071302 diet). To verify the efficacy of each of the Garcinia extract (notified raw material, 60% HCA) and Chiisanogenin or their mixture at each non-clinical administration concentration by using a non-alcoholic steatohepatitis (NASH)-induced animal model, changes of aspartate aminotransferase (AST) and alanine aminotransferase (ALT), which are biomarkers of liver tissue damage, in the serum of the non-alcoholic steatohepatitis (NASH) C57bl/6J mouse models caused by feeding NASH-inducing dietary feed (#A06071302) were observed, and the results are shown in Tables 11 and 12, respectively. In addition, the results of observing changes of hydroxyproline, which is a biomarker of liver fibrosis, in liver tissues are shown in Table 13.

[4] = system: non-alcoholic steatohepatitis (NASH) animal models; assay: ALT in serum of non-alcoholic steatohepatitis (NASH) animal model; type: in vivo, C57bl/6J mice; conditions: NASH mice, 8 weeks, Chiisanogenin 50 mg/kg
Experimental: as §1

[5] = system: non-alcoholic steatohepatitis (NASH) animal models; assay: Fibrosis marker hydroxyproline in liver tissue of NASH animal model; type: in vivo, C57bl/6J mice; conditions: NASH mice, 8 weeks, Chiisanogenin 50 mg/kg
Experimental: as §1

C=C(C)[C@@H]1CC[C@]2(C(=O)O)CC[C@]3(C)[C@H](C[C@H]4OC(=O)C[C@@H](O)[C@]5(C)[C@@H]4[C@@]3(C)CC[C@H]5C(=C)C)[C@@H]12 [Chiisanogenin]
inhibition at 6 µg/mL (HepG2 cells [1]; Homo sapiens, HepG2, Table 4, fat accumulation, Garcinia extract 0 + Chiisanogenin 6 μg/ml, read-out: Inhibition rate (%)): 80%
TG (% relative to positive control group, mean ± deviation) (HepG2 cells [1]; Table 4, Garcinia extract 0 + Chiisanogenin 6 μg/ml): 64 ± 7.9 %
Cell viability (%, mean ± deviation) (HepG2 cells [2]): 105 ± 13.7%
AST in serum (% relative to positive control group, mean ± deviation) [3]: 97 ± 15.4%
Inhibition rate (%, mean ± deviation) ([3]; serum AST): 4 ± 19.8%
ALT in serum (% relative to positive control group, mean ± deviation) [4]: 89 ± 14.6%
Inhibition rate (%, mean ± deviation) ([4]; serum ALT): 12 ± 5.1%
Hydroxyproline in liver tissues (% relative to positive control group, mean ± deviation) [5]: 69 ± 28%
Inhibition rate (%, mean ± deviation) ([5]; liver hydroxyproline): 26 ± 11.9%
